Measured values reported in patent US10562910B2, “Nitrogen-containing tricyclic compounds and uses thereof in medicine” (SUNSHINE LAKE PHARMA CO., LTD., priority 2016, dated 2020).
pEC50: −log10 of the molar value.

Key:
FXR-LBD = FXR-LBD (Homo sapiens (Human), UniProt Q96RI1); assay: TR-FRET Farnesoid X Receptor Coactivator Assay; assay type: biochemical; conditions: TR-FRET farnesoid X receptor protein coactivator activity
Description: Purchasing invitrogen PV4833 kits. The procedure refers to LanthaScreen™ TR-FRET Farnesoid X Receptor Coactivator Assay
First, the required amount of the compound was weighed and dissolved in 100% DMSO at the maximum concentration of 3000 μM. The solution at the maximum concentration was diluted by 3-fold serial dilution in DMSO to get 10 concentrations;
Second, the above prepared solutions of different concentrations were diluted to 50-fold with a buffer supplied with the kit, to 2× compound solution, followed by mixing and then 10 μL of the diluted solution was added to a 384 well plate;
Third, FXR-LBD was diluted with a buffer to 4× solution, and 5 μL of the diluent was added to the 384 well plate of second step;
Fourth, Fluorescein-SRC2-2 and Tb anti-GST antibody were diluted to 4× Fluorescein-SRC2-2 and Tb anti-GST antibody solution. Then two reagents were mixed together, and 5 μL of the mixture was added to the 384 well plate of third step;
Finally, the solution of the 384 well above was mixed uniformly by centrifuging, and then incubated at room temperature for 1 h. Then the TR-FRET Endpoint method was used for measuring the solution at wavelengths of 520 nm, 495 nm and 337 nm.

[1] = Pharmacokinetics test in SD rats; assay type: in vivo; conditions: rat, plasma, male SD rats; for Vd: read-out: Vss; for bioavailability: po 5 mg/kg vs iv 1 mg/kg
Description: Example 22 Pharmacokinetics Test
Experimental animals: six healthy adult male SD rats (purchased from Hunan SJA Laboratory Animal Co. Ltd.) were divided into two groups, three rats in each group, and the two groups were given intravenous injection and oral administration respectively.
Drug preparation: a quantity of a compound of the present invention was weighed, and 5% DMSO, 10% Kolliphor HS15 and 85% saline (0.9%) were added to give target concentrations of the compound solution.
Administration and sample collection: animals were fasted for 12 h before administration, and fed at the time point of 3 hours after the administration. SD rats of one group were given intravenous injection (IV, 1 mg/kg) via hind legs and SD rats of the other group were given oral administration (PO, 5 mg/kg) respectively. Then blood was collected in the rat tail vein at the time point of 0, 0.083, 0.25, 0.5, 1, 2, 4, 6, 8, 24 h respectively, and the blood volume was about 200-400 μL/time point. After the collection of whole blood at each time point, the collected blood was set in K2EDTA anticoagulant tube, and the tube was placed in the incubator with ice packs. All samples were centrifuged for 5 min at 4° C. at 4600 r/min within 15 min. Plasma was separated and collected. The concentrations of different compounds in the plasma of the rats after administration were measured using LC/MS/MS method, and the pharmacokinetic parameters were calculated according to the curve of the drug concentration-time.

[2] = molecular target: FXR ligand binding domain (LBD) (Homo sapiens (Human), UniProt Q96RI1); assay: Mammalian one hybrid (M1H) GAL4 reporter gene assay in HEK293 cells; assay type: cell-based; conditions: GAL4 reporter gene test
From the text: Mammalian one hybrid technology is also called chimeric receptor gene assay. Based on the GAL4 chimera receptor assay, the activity of compounds which mediated activation of FXR was detected by dual luciferase reporter assay. The methods were as follows: cDNA encoding the FXR ligand binding domain (LBD), the yeast GAL4 DNA binding domain (DBD) and the Renilla luciferase DNA were fused to construct a chimera expression plasmid pBIND-FXR (Promega). […] The plasmid pG5Luc (Promega) was used as the reporter plasmid, containing the GAL4 upstream activation sequence (UAS) and the Firefly luciferase receptor gene. All GAL4 reporter gene assays were done in HEK293 cells. Cells were cultured at 37° C., 5% CO2 under humidified conditions. […] The contents were mixed completely and incubated the mixtures for 15 minutes at room temperature. The volume of the transfection mixture was 2.5 μl/well. Trypsinized and diluted the cell slurry at a density of […] (100 μl/well for 96-well plate). Then added required volume of transfection mixture prepared previously into the cell slurry, and dispensed 100 μl/well of the cell slurry into the 96-well plate and incubated the plate for 24 hours at 37° C., 5% CO2 under humidified conditions. Compounds prediluted in complete medium were added into each well and then incubated at 37° C., 5% CO2 under humidified conditions for 18 hours. The firefly and renilla luciferase signal was assayed by Promega's Dual Luciferase Reporter Assay System.
The % Activation value was calculated by the following equation: Activation %=[(X−Min)/(Max−Min)]×100%. “X” is the “F/R” value from compounds. “F/R” means “Firefly/Renilla”. “Min” is the mean “F/R” value from no compound control. “Max” is the mean “F/R” value from reference compound control. Finally, the EC50 value of each compounds were calculated by GraphPrism 5.0.

Sequence of FXR ligand binding domain (LBD) (Q96RI1 261-481): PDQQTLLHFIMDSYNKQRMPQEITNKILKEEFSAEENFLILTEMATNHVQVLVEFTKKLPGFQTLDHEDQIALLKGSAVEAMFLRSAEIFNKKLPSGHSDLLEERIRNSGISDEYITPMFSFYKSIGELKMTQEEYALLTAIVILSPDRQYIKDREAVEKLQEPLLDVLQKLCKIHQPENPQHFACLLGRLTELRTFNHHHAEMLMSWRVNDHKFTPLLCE
Sequence of FXR-LBD (Q96RI1 262-486): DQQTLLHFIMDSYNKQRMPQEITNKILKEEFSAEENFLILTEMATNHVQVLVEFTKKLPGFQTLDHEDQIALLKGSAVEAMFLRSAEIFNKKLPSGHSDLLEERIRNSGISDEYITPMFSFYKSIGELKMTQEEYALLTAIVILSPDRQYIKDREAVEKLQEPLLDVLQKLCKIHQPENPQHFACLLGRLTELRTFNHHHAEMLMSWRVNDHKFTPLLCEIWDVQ

## O=C(O)c1ccc2c(c1)Oc1ccc(OCc3c(-c4c(Cl)cccc4Cl)noc3C3CC3)nc1C=C2F [Example 1, 2-((5-cyclopropyl-3-(2,6-dichlorophenyl)isoxazol-4-yl)methoxy)-10-fluorobenzo[6,7]oxepino[3,2-b]pyridine-7-carboxylic acid]
FXR-LBD
  pEC50: 7.31
[1]; iv 1 mg/kg
  AUC(0-inf): 1540 ng·h/mL
  AUC(0-t): 1540 ng·h/mL
  Cmax: 1890 ng/mL
  MRT inf: 47.5 min
  Tmax: 4.98 min
  clearance: 11.2 mL/min/kg
  half-life: 43.4 min
  Vd: 0.522 L/kg
[1]; po 5 mg/kg
  AUC(0-inf): 4210 ng·h/mL
  AUC(0-t): 4180 ng·h/mL
  Cmax: 2760 ng/mL
  MRT inf: 79.2 min
  Tmax: 30 min
  half-life: 54.8 min
[1]
  bioavailability: 55%

## O=C(O)c1ccc2c(c1)Oc1ccc(OCc3c(-c4c(Cl)cccc4Cl)noc3C3CC3)nc1CO2 [Example 2, 2-((5-cyclopropyl-3-(2,6-dichlorophenyl)isoxazol-4-yl)methoxy)-11H-benzo[2,3][1,4]dioxepino[6,5-b]pyridine-7-carboxylic acid]
FXR-LBD
  pEC50: 8.29
[1]; iv 1 mg/kg
  AUC(0-inf): 1150 ng·h/mL
  AUC(0-t): 1150 ng·h/mL
  Cmax: 2060 ng/mL
  MRT inf: 32.9 min
  Tmax: 4.98 min
  clearance: 14.8 mL/min/kg
  half-life: 53 min
  Vd: 0.479 L/kg
[1]; po 5 mg/kg
  AUC(0-inf): 4110 ng·h/mL
  AUC(0-t): 4110 ng·h/mL
  Cmax: 3640 ng/mL
  MRT inf: 55.9 min
  Tmax: 30 min
  half-life: 42.6 min
[1]
  bioavailability: 72%

## O=C(O)c1ccc2c(c1)Oc1ccc(OCc3c(-c4c(Cl)cccc4Cl)noc3C3CC3)nc1C1CC21 (centres unmarked) [Example 3, 3-((5-cyclopropyl-3-(2,6-dichlorophenyl)isoxazol-4-yl)methoxy)-1a,10b-dihydro-1H-benzo[6,7]cyclopropa[4,5]oxepino[3,2-b]pyridine-8-carboxylic acid]
FXR-LBD
  pEC50: 7.12

## O=C(O)c1cc(F)c2c(c1)Oc1ccc(OCc3c(-c4c(Cl)cccc4Cl)noc3C3CC3)nc1CC2 [Example 4, 2-((5-cyclopropyl-3-(2,6-dichlorophenyl)isoxazol-4-yl)methoxy)-9-fluoro-10,11-dihydrobenzo[6,7]oxepino[3,2-b]pyridine-7-carboxylic acid]
FXR-LBD
  pEC50: 7.22

## O=C(O)c1ccc2c(c1)Oc1ccc(OCc3c(-c4c(Cl)cccc4Cl)noc3C3CC3)nc1C(F)=C2 [Example 5, 2-((5-cyclopropyl-3-(2,6-dichlorophenyl)isoxazol-4-yl)methoxy)-11-fluorobenzo[6,7]oxepino[3,2-b]pyridine-7-carboxylic acid]
[1]; iv 1 mg/kg
  AUC(0-inf): 1580 ng·h/mL
  AUC(0-t): 1580 ng·h/mL
  Cmax: 3040 ng/mL
  MRT inf: 32.9 min
  Tmax: 4.98 min
  clearance: 10.6 mL/min/kg
  half-life: 40.9 min
  Vd: 0.344 L/kg
[1]; po 5 mg/kg
  AUC(0-inf): 7480 ng·h/mL
  AUC(0-t): 7450 ng·h/mL
  Cmax: 6430 ng/mL
  MRT inf: 64.2 min
  Tmax: 30 min
  half-life: 50.3 min
[1]
  bioavailability: 95%

## O=C(O)c1cc2c(cc1F)CCc1nc(OCc3c(-c4c(Cl)cccc4Cl)noc3C3CC3)ccc1O2 [Example 6, 2-((5-cyclopropyl-3-(2,6-dichlorophenyl)isoxazol-4-yl)methoxy)-8-fluoro-10,11-dihydrobenzo[6,7]oxepino[3,2-b]pyridine-7-carboxylic acid]
FXR-LBD
  pEC50: 7.51

## O=C(O)c1ccc2c(c1)Oc1ccc(OCc3c(-c4c(Cl)cccc4Cl)noc3C3CC3)nc1C(C(F)(F)F)=C2 [Example 7, 2-((5-cyclopropyl-3-(2,6-dichlorophenyl)isoxazol-4-yl)methoxy)-11-(trifluoromethyl)benzo[6,7]oxepino[3,2-b]pyridine-7-carboxylic acid]
[2]
  pEC50: 7.96

## O=C(O)c1ccc2c(c1)Oc1ccc(OCc3c(-c4c(Cl)cccc4Cl)noc3C3CC3)nc1C(C(F)(F)F)C2 (centres unmarked) [Example 8, 2-((5-cyclopropyl-3-(2,6-dichlorophenyl)isoxazol-4-yl)methoxy)-11-(trifluoromethyl)-10,11-dihydrobenzo[6,7]oxepino[3,2-b]pyridine-7-carboxylic acid]
[2]
  pEC50: 7.59

## O=C(O)c1ccc2c(c1)Oc1ccc(OCc3c(-c4c(Cl)cccc4Cl)noc3C3CC3)nc1C1(CC1)C2 [Example 9, 2-((5-cyclopropyl-3-(2,6-dichlorophenyl)isoxazol-4-yl)methoxy)-10H-spiro[benzo[6,7]oxepino[3,2-b]pyridine-11,1′-cyclopropane]-7-carboxylic acid]
[2]
  pEC50: 8.70

## O=C(O)c1ccc2c(c1)Oc1ccc(OCc3c(-c4c(Cl)cccc4Cl)noc3C3CC3)nc1C(F)(F)C2 [Example 10, 2-((5-cyclopropyl-3-(2,6-dichlorophenyl)isoxazol-4-yl)methoxy)-11,11-difluoro-10,11-dihydrobenzo[6,7]oxepino[3,2-b]pyridine-7-carboxylic acid]
[2]
  pEC50: 7.92
[1]; iv 1 mg/kg
  AUC(0-inf): 1330 ng·h/mL
  AUC(0-t): 1330 ng·h/mL
  Cmax: 3020 ng/mL
  MRT inf: 25.7 min
  Tmax: 4.98 min
  clearance: 12.6 mL/min/kg
  half-life: 47.6 min
  Vd: 0.322 L/kg
[1]; po 5 mg/kg
  AUC(0-inf): 5840 ng·h/mL
  AUC(0-t): 5790 ng·h/mL
  Cmax: 3760 ng/mL
  MRT inf: 82.8 min
  Tmax: 30 min
  half-life: 57.4 min
[1]
  bioavailability: 88%

## O=C(O)c1ccc2c(c1)Oc1ccc(OCc3c(-c4c(Cl)cccc4Cl)noc3C3CC3)nc1C(F)(F)C2O (centres unmarked) [Example 12, 2-((5-cyclopropyl-3-(2,6-dichlorophenyl)isoxazol-4-yl)methoxy)-11,11-difluoro-10-hydroxy-10,11-dihydrobenzo[6,7]oxepino[3,2-b]pyridine-7-carboxylic acid]
[2]
  pEC50: 6.87

## CC1=Cc2ccc(C(=O)O)cc2Oc2ccc(OCc3c(C4CC4)cnn3-c3c(Cl)cccc3Cl)nc21 [Example 15, 2-((4-cyclopropyl-1-(2,6-dichlorophenyl)-1H-pyrazol-5-yl)methoxy)-11-methylbenzo[6,7]oxepino[3,2-b]pyridine-7-carboxylic acid]
[2]
  pEC50: 7.89

## O=C(O)c1ccc2c(c1)Oc1ccc(OCc3c(-c4c(Cl)cccc4Cl)noc3C3CC3)nc1C(C1CC1)=C2 [Example 16, 11-cyclopropyl-2-((5-cyclopropyl-3-(2,6-dichlorophenyl)isoxazol-4-yl)methoxy)benzo[6,7]oxepino[3,2-b]pyridine-7-carboxylic acid]
[2]
  pEC50: 8.30

## O=C(O)c1ccc2c(c1)Oc1ccc(OCc3c(-c4c(Cl)cccc4Cl)noc3C3CC3)nc1C(C1CC1)C2 (centres unmarked) [Example 17, 11-cyclopropyl-2-((5-cyclopropyl-3-(2,6-dichlorophenyl)isoxazol-4-yl)methoxy)-10,11-dihydrobenzo[6,7]oxepino[3,2-b]pyridine-7-carboxylic acid]
[2]
  pEC50: 7.19

## CC1=Cc2nc(OCc3c(-c4c(Cl)cccc4Cl)noc3C3CC3)ccc2Oc2cc(C(=O)O)ccc21 [Example 18, 2-((5-cyclopropyl-3-(2,6-dichlorophenyl)isoxazol-4-yl)methoxy)-10-methylbenzo[6,7]oxepino[3,2-b]pyridine-7-carboxylic acid]
[2]
  pEC50: 7.03
